Assay results: patent publication US20080058297A1, “Heterocyclic Compounds For Preventing And Treating Disorders Associated With Excessive Bone Loss” (Synta Pharmaceuticals Corp., priority 2003, published 2008)
Where two headings read alike, the source gives them in different places.

Tests used:
[1] = system: Human peripheral blood mononuclear cells (PBMC); assay: Inhibition of osteoclast formation (RANKL/M-CSF induced, TRAP staining); type: cell-based
Description: (§1) Human peripheral blood mononuclear cells (PBMC) were isolated from healthy donor blood. The cells were seeded in multi-well plates at 7.5×10^5 cells/ml in RPMI 1640 medium including 10% FBS. Osteoclast formation was induced with 20 ng/ml of recombinant human receptor activator of NF-kB-ligand (RANKL) and 10 ng/ml of human M-CSF in the presence of various doses of test compounds. After 48 hours of culture, RANKL and M-CSF was replenished and further cultured for 2 days. Then, the cultured cells were stained for tartrate-resistant acid phosphatase (TRAP). Osteoclasts were identified as TRAP-positive cells with more than 3 nuclei. Total cell viability was assessed by CCK-8 assay (Dojindo, Gaithersburg, Md.) with 24 hour incubation.
as §1, with “Isolated” for “isolated”

[2] = Total cell viability by CCK-8 assay; type: cell-based; settings: human
Description: as §1
as §1, with “Isolated” for “isolated”

[3] = 96 h, read-out: IC50 (compound concentration required for 50% inhibition of osteoclast formation), Table 1, 20 ng/ml RANKL + 10 ng/ml M-CSF, TRAP-positive cells with more than 3 nuclei
[4] = 96 h, read-out: IC50 (compound concentration required for 50% inhibition of osteoclast formation), Table 2, 20 ng/ml RANKL + 10 ng/ml M-CSF, TRAP-positive cells with more than 3 nuclei
[5] = 96 h, read-out: IC50 (compound concentration required for 50% inhibition of osteoclast formation), Table 3, 20 ng/ml RANKL + 10 ng/ml M-CSF, TRAP-positive cells with more than 3 nuclei

What does the source list for Cc1cccc(C=NNc2cc(N3CCOCC3)nc(OCC(O)c3ccccn3)n2)c1 (stereo not shown) [Compound 42, 2-{4-[N′-(3-Methyl-benzylidene)-hydrazino]-6-morpholin-4-yl-pyrimidin-2-yloxy}-1-pyridin-2-yl-ethanol]?
IC50 [1, 3]: 8 nM; CC50 at 24 h ([2]; Table 1, 24 hour incubation): > 1000 nM

For Cc1[nH]c2cc(Nc3nc(OCCOc4cccnc4)nc(N4CCOCC4)n3)ccc2c1C [Compound 115, (2,3-Dimethyl-1H-indol-6-yl)-{4-morpholin-4-yl-6-[2-(pyridin-3-yloxy)-ethoxy]-[1,3,5]triazin-2-yl}-amine], which IC50 [1, 4] is on record?
The IC50 was 16 nM.

What about the CC50 at 24 h ([2]; Table 2, 24 hour incubation) of the same compound?
Its CC50 at 24 h is over 1000 nM.

For Cc1[nH]c2ccc(Nc3nc(OCCc4ccccn4)nc(N4CCOCC4)n3)cc2c1C [Compound 102], which IC50 [1, 4] is on record?
Its IC50 is 3 nM.

What about the CC50 at 24 h ([2]; Table 2, 24 hour incubation) of the same compound?
Its CC50 at 24 h is over 1000 nM.

Which IC50 [1, 4] does the source give for C(=NNc1nc(OCCc2ccccn2)nc(N2CCOCC2)n1)c1c[nH]c2ccccc12 [Compound 116, N-(1H-indol-3-ylmethylene)-N′-[4-morpholin-4-yl-6-(2-pyridin-2-yl-ethoxy)-[1,3,5]triazin-2-yl]-hydrazine] here?
The IC50 was 35 nM.

What about the CC50 at 24 h ([2]; Table 2, 24 hour incubation) of the same compound?
Its CC50 at 24 h is over 10000 nM.

Which IC50 [1, 5] does the source give for Cc1cccc(Nc2nc(N3CCOCC3)c3nc(Nc4cccc(C)c4)[nH]c3n2)c1 [Example 79, 6-morpholin-4-yl-N^2,N^8-di-m-tolyl-9H-purine-2,8-diamine] here?
The IC50 was 9 nM.

What about the CC50 at 24 h ([2]; Table 3, 24 hour incubation) of the same compound?
The CC50 at 24 h was over 1000 nM.

What does the source list for Cc1cccc(Nc2nc(N3CCOCC3)c3nc(Nc4cccc(C)c4)n(C)c3n2)c1 [Example 116, 9-Methyl-6-morpholin-4-yl-N^2,N^8-di-m-tolyl-9H-purine-2,8-diamine]?
IC50 [1, 5]: 2 nM; CC50 at 24 h ([2]; Table 3, 24 hour incubation): > 1000 nM

Which IC50 [1, 5] does the source give for Cc1cccc(Nc2nc3c(N4CCOCC4)nc(OCCOc4ccccn4)nc3[nH]2)c1 [Example 63, {6-morpholin-4-yl-2-[2-(pyridin-2-yloxy)-ethoxy]-9H-purin-8-yl}-m-tolyl-amine] here?
Its IC50 is 3 nM.

What about the CC50 at 24 h ([2]; Table 3, 24 hour incubation) of the same compound?
The CC50 at 24 h was over 1000 nM.

Which results are given for C[C@]12CC[C@@H]3c4ccc(O)cc4CC[C@H]3[C@@H]1CC[C@@H]2O [17β-estradiol, reference compound]?
IC50 ([1]; read-out: IC50 (compound concentration required for 50% inhibition of osteoclast formation), Table 1, 20 ng/ml RANKL + 10 ng/ml M-CSF, TRAP-positive cells with more than 3 nuclei): 78 nM; IC50 ([1]; read-out: IC50 (compound concentration required for 50% inhibition of osteoclast formation), Table 2, 20 ng/ml RANKL + 10 ng/ml M-CSF, TRAP-positive cells with more than 3 nuclei): 78 nM; IC50 ([1]; read-out: IC50 (compound concentration required for 50% inhibition of osteoclast formation), Table 3, 20 ng/ml RANKL + 10 ng/ml M-CSF, TRAP-positive cells with more than 3 nuclei): 78 nM

Which IC50 [1, 5] does the source give for COc1ccc(N(C)c2nc(N3CCOCC3)c3nc(Nc4cccc(C)c4)[nH]c3n2)cc1 [Example 117, N^2-(4-Methoxy-phenyl)-N^2-methyl-6-morpholin-4-yl-N^8-m-tolyl-9H-purine-2,8-diamine] here?
The IC50 was 12 nM.

And the CC50 at 24 h ([2]; Table 3, 24 hour incubation)?
Its CC50 at 24 h is over 1000 nM.

For c1cncc(OCCOc2nc(Nc3ccc4c(c3)oc3ccccc34)nc(N3CCOCC3)n2)c1 [Compound 114, Dibenzofuran-3-yl-{4-morpholin-4-yl-6-[2-(pyridin-3-yloxy)-ethoxy]-[1,3,5]triazin-2-yl}-amine], which IC50 [1, 4] is on record?
The IC50 was 24 nM.

And the CC50 at 24 h ([2]; Table 2, 24 hour incubation)?
Its CC50 at 24 h is over 1000 nM.

For Cc1cccc(/C=N/Nc2cc(N3CCOCC3)nc(OCCc3ccc(O)cn3)n2)c1 [Compound 43, 6-(2-{4-[N′-(3-Methyl-benzylidene)-hydrazino]-6-morpholin-4-yl-pyrimidin-2-yloxy}-ethyl)-pyridin-3-ol], which IC50 [1, 3] is on record?
Its IC50 is 12 nM.

And the CC50 at 24 h ([2]; Table 1, 24 hour incubation)?
Its CC50 at 24 h is over 1000 nM.

Which results are given for COc1ccc(CCOc2nc(Nc3ccc4c(c3)oc3ccccc34)nc(N3CCOCC3)n2)cc1OC [Compound 113, Dibenzofuran-3-yl-{4-[2-(3,4-dimethoxy-phenyl)-ethoxy]-6-morpholin-4-yl-[1,3,5]triazin-2-yl}-amine]?
IC50 [1, 4]: 12 nM; CC50 at 24 h ([2]; Table 2, 24 hour incubation): > 1000 nM

For Cc1cccc(/C=N/Nc2cc(N3CCOCC3)nc(OCCc3ccccn3)n2)c1 [Compound 12, N-(3-methyl-benzylidene)-N′-[6-morpholin-4-yl-2-(2-pyridin-2-yl-ethoxy)-pyrimidin-4-yl]-hydrazine], which IC50 [1, 3] is on record?
Its IC50 is 15 nM.

What about the CC50 at 24 h ([2]; Table 1, 24 hour incubation) of the same compound?
Its CC50 at 24 h is 3250 nM.

Which IC50 [1, 3] does the source give for OCc1cccc(/C=N/Nc2cc(N3CCOCC3)nc(OCCc3ccc(O)cn3)n2)c1 [Compound 44, 6-(2-{4-[N′-(3-Hydroxymethyl-benzylidene)-hydrazino]-6-morpholin-4-yl-pyrimidin-2-yloxy}-ethyl)-pyridin-3-ol] here?
Its IC50 is 17 nM.

What about the CC50 at 24 h ([2]; Table 1, 24 hour incubation) of the same compound?
The CC50 at 24 h was over 1000 nM.

Which results are given for Cc1cccc(/C=N/Nc2cc(N3CCOCC3)nc(OCCc3cccc[n+]3[O-])n2)c1 [Compound 28, N-(3-methyl-benzylidene)-N′-{6-morpholin-4-yl-2-[2-(1-oxy-pyridin-2-yl)-ethoxy]-pyrimidin-4-yl}-hydrazine]?
IC50 [1, 3]: 70 nM; CC50 at 24 h ([2]; Table 1, 24 hour incubation): > 1000 nM
